These are literature values, as cited in patent US6749871B2, “Compositions for treating symptoms of urogenital/urological disorders” (Prater Herbs, L.L.C., priority 2002, dated 2004).

In the data set the test system is benign prostatic hyperplasia. As to conditions: three-year clinical evaluation.

Regarding `CC(C)(C)NC(=O)[C@H]1CC[C@H]2[C@@H]3CC[C@H]4NC(=O)C=C[C@]4(C)[C@H]3CC[C@]12C` [Finasteride], the “Improvement in urinary flow rate” value is 2.3 ml per second; the “Participants with side effects such as decreased libido and impotence” value was “about four to five percent”; the “Reduction in prostatic volume” value is listed as “about 27%”; the “Reduction in symptom score” value is on record as 3.6 points.
